Reference: publication PMC5483439, “The Effect of Pungent and Tingling Compounds from Piper nigrum L. on Background K^+ Currents” (Frontiers in Pharmacology, 2017)

Target: T1, mKCNK3 (Mus musculus, UniProt O35111)
T1 construct: expressed in transfected cells; host or cells: Xenopus laevis oocytes injected with cRNA (plasmid pSGEM)
Experiment: Two-electrode voltage clamp on Xenopus oocytes expressing mKCNK3
Type: cell-based
Conditions: 1–1000 μM
Excerpt: Human KCNK3 (TASK-1, K2P3.1) cloned into the expression vector pIRES-CD8 was a gift from Dr. Fabrice Duprat (Institut National de la Santé et de la Recherche Médicale, Antipolis, France). Human KCNK18 (hTRESK, K2P18.1), cloned into the plasmid pEXO, was a gift from Dr. P. Enyedi (Semmelweis University, Budapest, Hungary). These plasmids were linearized with the restriction enzymes BamHI and XbaI, respectively, and then used as templates for in vitro transcription. Human KCNK9 (hTASK-3, K2P9.1) cloned into the expression vector pCR4-TOPO, was purchased from Imagenes (Berlin, Germany). The plasmid was linearized with the restriction enzyme SspI, to generate a linear cDNA template for in vitro transcription. mKCNK3 was isolated from mouse heart by standard procedures and inserted into pSGEM. mKCNK9 and mKCNK18 were kindly provided by Dr. D. Bayliss (University of Virginia, Charlottesville, VA, United States) and Prof. Dr. P. Enyedi (Semmelweis University, Budapest, Hungary). Both channels were subcloned into pSGEM. The pSGEM plasmids were subsequently linearized with the restriction enzyme PacI. The capped RNAs were synthesized in the presence of the capping analog m7G(5′)ppp(5′)G using the AmpliCap-T7 Message Maker kit (Epicentre, Madison, WI, United States). The cRNA was dissolved in nuclease-free water to obtain a final concentration of 100 ng/μL. […]

T1 sequence (O35111 whole entry): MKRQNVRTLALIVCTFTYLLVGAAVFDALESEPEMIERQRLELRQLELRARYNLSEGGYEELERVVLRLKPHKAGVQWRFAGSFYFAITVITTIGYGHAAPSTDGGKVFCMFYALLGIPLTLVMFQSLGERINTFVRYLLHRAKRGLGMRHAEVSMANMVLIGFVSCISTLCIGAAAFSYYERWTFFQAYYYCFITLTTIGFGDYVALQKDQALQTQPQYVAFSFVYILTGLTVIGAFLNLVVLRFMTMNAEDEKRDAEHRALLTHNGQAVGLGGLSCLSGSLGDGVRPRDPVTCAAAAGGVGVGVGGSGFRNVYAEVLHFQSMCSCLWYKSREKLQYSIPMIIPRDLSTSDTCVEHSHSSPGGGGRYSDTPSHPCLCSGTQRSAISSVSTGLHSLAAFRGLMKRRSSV

IC50: 30 ± 2.8 µM
Compound: O=C(/C=C/C=C/c1ccc2c(c1)OCO2)N1CCCCC1 [1a, piperine]
